The target in assay [1] is T1, chitin synthase 1 of Candida albicans chs2 Δ chs 3 Δ (Candida albicans, UniProt P23316).
T1 construct: Crude enzyme was prepared using the Candida albicans chs2 Δ chs 3 Δ mutant; endogenous in cells; host or cells: Candida albicans chs2Δ/chs2Δ chs3Δ/chs3Δ mutant; 130,000 x g membrane pellet
The assay can be described thus: In vitro enzyme assay for chitin synthase 1 of Candida albicans (enzyme 1). Type of assay: biochemical. The note with it: relative to polyoxin D (50% inhibitory activity = value 5). The method, then:
Crude enzyme was prepared using the Candida albicans chs2 Δ chs 3 Δ mutant (chs2 Δ::hisG/chs2 Δ::hisG chs3 Δ::hisG/chs3 Δ::hisG) strain, which can only produce the chitin synthase 1. The strain was inoculated with the SDA (Sabouraud dextrose agar) culture medium (4% dextrose, 1% peptone, pH 5.6) and cultured at 30° C. for 15-17 hours until the absorbance at 550nm reaches 0.7. The cells were collected and suspended in a 50 mM Tris-HCl (pH 7.5) buffer solution containing 5 mM magnesium acetate. After centrifugation at 8,000×g for 10 minutes, the pellets were suspended in the same Tris-HCl buffer solution. The suspension was divided into aliquots in 50 mL conical test tubes. After adding glass beads, the cells were disrupted by vigorously vortexing with an interval of 30 seconds. The cell residues were removed by centrifuging at 3,000×g for 5 minutes. The supernatant was ultra-centrifuged at 130,000×g for 1 hour. The resultant pellets were collected and suspended in 50 mM Tris-HCl (pH 7.5) containing 33% glycerol, to a final volume of 1.6 mg/g (wet weight) of yeast used. The suspension was divided into aliquots and kept at −70° C. until it is used.
(§1) The inhibitory activities against the chitin synthase 1 of Candida albicans chs2 Δ chs 3 Δ (abbreviated as ‘enzyme 1’) and the chitin synthase 2 of Saccharomyces cerevisiae ECY38-38A(pAS6)(abbreviated as ‘enzyme 2’) was examined for compound Nos. 1 to 70 compound and polyoxin D, a positive control compound.
(§2) The inhibitory activity against the chitin synthase 1 prepared from Candida albicans and the chitin synthase 2 prepared from Saccharomyces cerevisiae were examined as follows. A reaction mixture containing 32 mM Tris-HCl (pH 7.5), 2 mM cobalt acetate, 1.1 mM UDP-[U-^14C]-N-acetyl-d-glucosamine (GlcNAc) (400,000 cpm/μmol), 2 μL of trypsin (0.75 mg/mL), 20 μL of each crude enzyme and 14 μL of each test sample was kept at 30° C. for 15 minutes to activate the enzyme. Then, 2 μL of trypsin inhibitor (1.5 mg/mL) was added and the mixture was kept in an ice bath for 10 minutes to deactivate trypsin. 2 μL of 0.8 M N-acetyl-d-glucosamine was added to a total volume of 50 μL and reaction was performed at 30° C. for 90 minutes. The reaction was stopped using 1 mL of 10% TCA solution and the reaction solution was filtered with a GF/C filter and dried at room temperature. After adding 3 mL of a scintillation cocktail solution, the amount of isotopes was measured using a liquid scintillation counter. Percentage inhibition against each enzyme was calculated by the following Equation 1.
(§3) The control group was not added with a test sample in the reaction mixture and that of the untreated group contained neither the test sample nor the crude enzyme.
(§4) A 50% inhibitory activity of polyoxin D against the enzyme was given the value 5. A compound having the same inhibitory activity as that of polyoxin D at the same concentration was given the value 5. Compounds having the inhibitory activity at 2-fold, 4-fold, 8-fold and 16-fold higher concentrations than that of polyoxin D were given the values of 4, 3, 2 and 1, respectively. On the other hand, compounds having the inhibitory activity at ½, ¼ and ⅛ lower concentrations than that of polyoxin D were given the values of 6, 7 and 8, respectively.

Assay [2] has as its target T2, chitin synthase 2 of Saccharomyces cerevisiae ECY38-38A(pAS6) (Saccharomyces cerevisiae, UniProt P14180).
T2 construct: made in house; host or cells: Saccharomyces cerevisiae ECY38-38A (chs1-23 chs2::LEU2 cal1/csd2) carrying plasmid pAS6, grown in galactose medium; 130,000 x g membrane pellet
Description: In vitro enzyme assay for chitin synthase 2 of Saccharomyces cerevisiae (enzyme 2). Type of assay: biochemical. The note with it: relative to polyoxin D (50% inhibitory activity = value 5). The procedure: Crude enzyme was prepared using the recombinant Saccharomyces cerevisiae ECY38-38A(pAS6) (MATa chs1-23 chs2::LEU2 cal 1/csd 2 ura 3-52 trp 1-1 leu 2-2 pAS6) strain, which can produce the chitin synthase 2 only. The strain was inoculated with the YPG culture medium (1% yeast extract, 2% peptone, 2% galactose) and cultured at 30° C. overnight. Then, it was inoculated with a fresh YPG culture medium and cultured for 15-17 hours until the Absorbance at 550 nm reaches 1.0. The cells were collected and suspended in 50 mM Tris-HCl (pH 7.5) buffer containing 5 mM magnesium acetate. After centrifugation at 8,000×g for 10 minutes, the pellets were suspended in the same Tris-HCl buffer solution. The suspension was divided into aliquots in 50 mL conical test tubes. After adding the glass beads, the cells were disrupted by vigorously vortexing with an interval of 30 seconds. The cell residues were removed by centrifuging at 3,000×g for 5 minutes. The supernatant was ultra-centrifuged at 130,000×g for 1 hour. The resultant pellets were collected and suspended in 50 mM Tris-HCl (pH 7.5) containing 33% glycerol, to a final volume of 1.6 mg/g (wet weight) of yeast used. The suspension was divided into aliquots and kept at −70° C. until it is used.
as §1, §2, §3, §4

Where only a bound is given, the exact number is not on record here.

Data on twelve compounds can be found in US7915276B2, “Berberrubine derivatives having antifungal activities” (priority 2006, dated 2011).

T1 sequence (P23316 whole entry, stated change not applied): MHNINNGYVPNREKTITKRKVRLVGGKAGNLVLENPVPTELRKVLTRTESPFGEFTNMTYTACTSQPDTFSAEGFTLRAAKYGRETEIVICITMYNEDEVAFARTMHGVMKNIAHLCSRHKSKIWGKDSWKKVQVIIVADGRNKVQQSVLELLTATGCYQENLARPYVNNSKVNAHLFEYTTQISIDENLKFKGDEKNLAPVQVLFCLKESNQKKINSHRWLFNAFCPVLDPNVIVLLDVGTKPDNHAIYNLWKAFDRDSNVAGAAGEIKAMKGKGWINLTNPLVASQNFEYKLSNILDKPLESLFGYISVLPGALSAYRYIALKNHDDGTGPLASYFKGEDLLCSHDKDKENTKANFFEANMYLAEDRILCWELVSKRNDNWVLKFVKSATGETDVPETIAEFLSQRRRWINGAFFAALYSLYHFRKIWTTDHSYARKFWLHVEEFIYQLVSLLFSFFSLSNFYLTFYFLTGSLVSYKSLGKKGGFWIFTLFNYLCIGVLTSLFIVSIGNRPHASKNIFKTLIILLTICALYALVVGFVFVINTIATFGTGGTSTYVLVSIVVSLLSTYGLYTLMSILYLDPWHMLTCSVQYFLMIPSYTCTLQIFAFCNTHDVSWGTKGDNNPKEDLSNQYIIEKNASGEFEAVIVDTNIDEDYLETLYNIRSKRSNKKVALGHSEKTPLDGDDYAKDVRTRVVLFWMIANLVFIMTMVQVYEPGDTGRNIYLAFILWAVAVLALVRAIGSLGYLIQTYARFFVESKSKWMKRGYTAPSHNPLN
T2 sequence (P14180 whole entry): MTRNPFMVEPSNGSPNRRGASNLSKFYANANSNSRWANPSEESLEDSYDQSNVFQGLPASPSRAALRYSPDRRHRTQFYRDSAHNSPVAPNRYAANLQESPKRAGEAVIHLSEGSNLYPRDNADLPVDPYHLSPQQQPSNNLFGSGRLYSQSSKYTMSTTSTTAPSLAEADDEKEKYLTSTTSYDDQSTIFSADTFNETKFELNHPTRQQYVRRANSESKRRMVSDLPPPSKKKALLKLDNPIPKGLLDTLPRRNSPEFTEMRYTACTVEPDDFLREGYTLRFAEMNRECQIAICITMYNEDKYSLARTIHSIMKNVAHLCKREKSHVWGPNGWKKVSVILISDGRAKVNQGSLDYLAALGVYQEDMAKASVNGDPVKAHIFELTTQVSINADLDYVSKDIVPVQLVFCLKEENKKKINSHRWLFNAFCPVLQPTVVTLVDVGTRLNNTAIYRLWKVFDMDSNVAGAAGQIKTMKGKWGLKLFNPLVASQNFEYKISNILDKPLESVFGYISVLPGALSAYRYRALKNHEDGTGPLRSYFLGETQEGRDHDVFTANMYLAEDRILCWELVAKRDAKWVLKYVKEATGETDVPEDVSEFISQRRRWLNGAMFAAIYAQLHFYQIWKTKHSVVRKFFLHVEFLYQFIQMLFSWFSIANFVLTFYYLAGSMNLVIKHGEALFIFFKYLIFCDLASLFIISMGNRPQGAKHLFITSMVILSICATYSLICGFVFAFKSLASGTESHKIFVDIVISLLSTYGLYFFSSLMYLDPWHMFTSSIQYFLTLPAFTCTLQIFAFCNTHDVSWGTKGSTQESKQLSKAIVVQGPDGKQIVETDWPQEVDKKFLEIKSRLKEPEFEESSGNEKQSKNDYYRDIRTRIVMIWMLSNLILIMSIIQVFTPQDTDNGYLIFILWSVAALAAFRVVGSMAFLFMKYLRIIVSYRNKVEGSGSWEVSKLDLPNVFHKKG

With “13-(3,4,5-Trifluorobenzyl)-9-O-hexylberberrubine iodide [Compound No. 28]”, the “Relative activity Enzyme 1” value in assay [1] was 2 (Compounds having the inhibitory activity at 2-fold, 4-fold, 8-fold and 16-fold higher concentrations than that of polyoxin D were given the values of 4, 3, 2 and 1, respectively). Also, in assay [2], the “Relative activity Enzyme 2” value is 5 (A compound having the same inhibitory activity as that of polyoxin D at the same concentration was given the value 5).
Consider `COc1ccc2c(Cc3ccc(C(F)(F)F)cc3)c3[n+](cc2c1OC)CCc1cc2c(cc1-3)OCO2.[Cl-]` [Comparative compound 2, reference compound], for which, in assay [1], the “Relative activity Enzyme 1” value is <1 (Compounds having the inhibitory activity at 2-fold, 4-fold, 8-fold and 16-fold higher concentrations than that of polyoxin D were given the values of 4, 3, 2 and 1, respectively). For the same compound, the “Relative activity Enzyme 2” value in assay [2] was 2 (Compounds having the inhibitory activity at 2-fold, 4-fold, 8-fold and 16-fold higher concentrations than that of polyoxin D were given the values of 4, 3, 2 and 1, respectively).
“13-(3,4,5-Trimethoxybenzyl)-9-O-hexylberberrubine iodide [Compound No. 31]”: in assay [1], the “Relative activity Enzyme 1” value is 2 (Compounds having the inhibitory activity at 2-fold, 4-fold, 8-fold and 16-fold higher concentrations than that of polyoxin D were given the values of 4, 3, 2 and 1, respectively). In assay [2], the “Relative activity Enzyme 2” value was 4 (Compounds having the inhibitory activity at 2-fold, 4-fold, 8-fold and 16-fold higher concentrations than that of polyoxin D were given the values of 4, 3, 2 and 1, respectively).
“13-(4-Trifluoromethoxybenzyl)-9-O-butylberberrubine iodide [Compound No. 33]”: the “Relative activity Enzyme 1” value in assay [1] is 3 (Compounds having the inhibitory activity at 2-fold, 4-fold, 8-fold and 16-fold higher concentrations than that of polyoxin D were given the values of 4, 3, 2 and 1, respectively). For the same compound, the “Relative activity Enzyme 2” value in assay [2] is 6 (compounds having the inhibitory activity at ½, ¼ and ⅛ lower concentrations than that of polyoxin D were given the values of 6, 7 and 8, respectively).
For the compound “13-(4-Trifluoromethylbenzyl)-9-O-butylberberrubine iodide [Compound No. 36]”, the “Relative activity Enzyme 1” value in assay [1] is 3 (Compounds having the inhibitory activity at 2-fold, 4-fold, 8-fold and 16-fold higher concentrations than that of polyoxin D were given the values of 4, 3, 2 and 1, respectively). For the same compound, the “Relative activity Enzyme 2” value in assay [2] is 6 (compounds having the inhibitory activity at ½, ¼ and ⅛ lower concentrations than that of polyoxin D were given the values of 6, 7 and 8, respectively).
With “13-(3,4,5-Trimethoxybenzyl)-9-O-hexylberberrubine chloride [Compound No. 63]”, the “Relative activity Enzyme 1” value in assay [1] is 2 (Compounds having the inhibitory activity at 2-fold, 4-fold, 8-fold and 16-fold higher concentrations than that of polyoxin D were given the values of 4, 3, 2 and 1, respectively). The “Relative activity Enzyme 2” value in assay [2] is 4 (Compounds having the inhibitory activity at 2-fold, 4-fold, 8-fold and 16-fold higher concentrations than that of polyoxin D were given the values of 4, 3, 2 and 1, respectively).
In the case of `COc1cc(Cc2c3[n+](cc4c(OCc5ccc(C(C)(C)C)cc5)c(OC)ccc24)CCc2cc4c(cc2-3)OCO4)cc(OC)c1OC.[Cl-]` [Compound No. 64, 13-(3,4,5-Trimethoxybenzyl)-9-O-(4-tert-butylbenzyl)berberrubine chloride], in assay [1], the “Relative activity Enzyme 1” value was 2 (Compounds having the inhibitory activity at 2-fold, 4-fold, 8-fold and 16-fold higher concentrations than that of polyoxin D were given the values of 4, 3, 2 and 1, respectively). In assay [2], the “Relative activity Enzyme 2” value was 4 (Compounds having the inhibitory activity at 2-fold, 4-fold, 8-fold and 16-fold higher concentrations than that of polyoxin D were given the values of 4, 3, 2 and 1, respectively).
Take `COc1ccc2c(Cc3cc(F)c(F)c(F)c3)c3[n+](cc2c1OCc1ccc(C(C)(C)C)cc1)CCc1cc2c(cc1-3)OCO2.[Br-]` [Compound No. 29, 13-(3,4,5-Trifluorobenzyl)-9-O-(4-tert-butylbenzyl)berberrubine bromide]: the “Relative activity Enzyme 1” value in assay [1] is 2 (Compounds having the inhibitory activity at 2-fold, 4-fold, 8-fold and 16-fold higher concentrations than that of polyoxin D were given the values of 4, 3, 2 and 1, respectively). The “Relative activity Enzyme 2” value in assay [2] is 5 (A compound having the same inhibitory activity as that of polyoxin D at the same concentration was given the value 5).
“13-(3,4,5-Trimethoxybenzyl)berberrubine [Compound No. 2]”: the “Relative activity Enzyme 1” value in assay [1] was 1 (Compounds having the inhibitory activity at 2-fold, 4-fold, 8-fold and 16-fold higher concentrations than that of polyoxin D were given the values of 4, 3, 2 and 1, respectively). In addition, the “Relative activity Enzyme 2” value in assay [2] was 3 (Compounds having the inhibitory activity at 2-fold, 4-fold, 8-fold and 16-fold higher concentrations than that of polyoxin D were given the values of 4, 3, 2 and 1, respectively).
On to `COc1ccc2c(Cc3ccc(C(F)(F)F)cc3)c3[n+](cc2c1OCc1ccc(C(C)(C)C)cc1)CCc1cc2c(cc1-3)OCO2.[Cl-]` [Compound No. 70, 13-(4-Trifluoromethylbenzyl)-9-O-(4-tert-butylbenzyl)berberrubine chloride], for which the “Relative activity Enzyme 1” value in assay [1] was 2 (Compounds having the inhibitory activity at 2-fold, 4-fold, 8-fold and 16-fold higher concentrations than that of polyoxin D were given the values of 4, 3, 2 and 1, respectively). Further, in assay [2], the “Relative activity Enzyme 2” value is reported as 5 (A compound having the same inhibitory activity as that of polyoxin D at the same concentration was given the value 5).
As to “13-(3,4,5-trifluorobenzyl)-9-O-butylberberrubine chloride [Compound No. 59]”, in assay [1], the “Relative activity Enzyme 1” value was 3 (Compounds having the inhibitory activity at 2-fold, 4-fold, 8-fold and 16-fold higher concentrations than that of polyoxin D were given the values of 4, 3, 2 and 1, respectively). Also, the “Relative activity Enzyme 2” value in assay [2] is 5 (A compound having the same inhibitory activity as that of polyoxin D at the same concentration was given the value 5).
With `COc1ccc2c(Cc3cc(F)c(F)c(F)c3)c3[n+](cc2c1OCc1ccc(C(C)(C)C)cc1)CCc1cc2c(cc1-3)OCO2.[Cl-]` [Compound No. 61, 13-(3,4,5-Trifluorobenzyl)-9-O-(4-tert-butylbenzyl)berberrubine chloride], the “Relative activity Enzyme 1” value in assay [1] is 2 (Compounds having the inhibitory activity at 2-fold, 4-fold, 8-fold and 16-fold higher concentrations than that of polyoxin D were given the values of 4, 3, 2 and 1, respectively). In addition, in assay [2], the “Relative activity Enzyme 2” value is 4 (Compounds having the inhibitory activity at 2-fold, 4-fold, 8-fold and 16-fold higher concentrations than that of polyoxin D were given the values of 4, 3, 2 and 1, respectively).
